This is an account of results in patent US20250368666A1, “INDAZOLE COMPOUNDS” (TYRA BIOSCIENCES, INC., priority 2022, published 2025).

Assay [1] deals with HuH7 cell line (FGF19 amplification). The assay is described as follows: Cancer cell line cell viability assay (Cell Titer-Glo), 120 hr. Format: cell-based. The note with it: Homo sapiens, Huh-7. In outline: (§1)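 Intracellular ATP was measured by Cell Titer-Glo 2.0 luminescence after cells were incubated with compound dilutions (top 3 μM, 4-fold, 9 doses). Values were expressed relative to DMSO-treated cells and IC50 was calculated from a variable-slope dose-response curve.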

In assay [2] the target is T1, FGFR2 (Homo sapiens, UniProt P21802).
T1 construct: made in house; host or cells: E. coli (BL21-derived), T7 phage
The assay is described as follows: Kinase binding assay (kinase-tagged T7 phage, affinity beads, qPCR), Kd. As to conditions: read-out: FGFR2 (Kd nM). Put shortly: (§2)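 Readout was qPCR of kinase eluted from ligand-coated affinity beads after competition with test compound. Kinases were expressed as T7 phage fusions in E. coli. Binding constants were derived by non-linear least-squares Hill fitting, Hill slope −1.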

Assay [3] deals with T2, FGFR3 (V555M) (Homo sapiens, UniProt P22607, V555M).
T2 construct: made in house; host or cells: E. coli (BL21-derived), T7 phage
The assay is described as above. As to conditions: V555M mutant; read-out: FGFR3 (V555M) (Kd nM). Put shortly:
as §2

Assay [4] concerns the target T3, FGFR4 (Homo sapiens, UniProt P22455).
T3 construct: made in house; host or cells: E. coli (BL21-derived), T7 phage
The description is as above. The note with it: read-out: FGFR4 (Kd nM). In outline: as §2

For assay [5], the target named is T4, FGFR3 (Homo sapiens, UniProt P22607).
T4 construct: made in house; host or cells: E. coli (BL21-derived), T7 phage
The description is as above. As to conditions: read-out: FGFR3 (Kd nM). In outline:
as §2

The target in assay [6] is T5, FGFR1 (Homo sapiens, UniProt P11362).
T5 construct: made in house; host or cells: E. coli (BL21-derived), T7 phage
The description is as above. As to conditions: read-out: FGFR1 (Kd nM). Put shortly:
as §2

Assay [7] relates to KATO-III cell line (FGFR2 amplification). The assay is described as follows: Cancer cell line cell viability assay (Cell Titer-Glo), 72 hr. Type of assay: cell-based. The note with it: Homo sapiens, KATO III. Put shortly: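 5,000-20,000 cells/well o/n; cpd 9-pt 4x dil from 3 μM, n=3; 37° C/5% CO2; CTG 2.0 lumi; % DMSO ctrl; 4PL IC50.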
Assay [8] relates to KG-1 cell line (FGFR 1-fusion). Described as above. Type of assay: cell-based. As to conditions: Homo sapiens, KG-1, KG-1 cell line (FGFR1-fusion). In outline:
as §1

Assay [9] deals with RT112/84 cell line (FGFR3-fusion). The description is as above. As to conditions: Homo sapiens, RT112/84, RT112/84 cell line (FGFR3-fusion). Type of assay: cell-based. Put shortly: as §1

T5 sequence (P11362 22-822): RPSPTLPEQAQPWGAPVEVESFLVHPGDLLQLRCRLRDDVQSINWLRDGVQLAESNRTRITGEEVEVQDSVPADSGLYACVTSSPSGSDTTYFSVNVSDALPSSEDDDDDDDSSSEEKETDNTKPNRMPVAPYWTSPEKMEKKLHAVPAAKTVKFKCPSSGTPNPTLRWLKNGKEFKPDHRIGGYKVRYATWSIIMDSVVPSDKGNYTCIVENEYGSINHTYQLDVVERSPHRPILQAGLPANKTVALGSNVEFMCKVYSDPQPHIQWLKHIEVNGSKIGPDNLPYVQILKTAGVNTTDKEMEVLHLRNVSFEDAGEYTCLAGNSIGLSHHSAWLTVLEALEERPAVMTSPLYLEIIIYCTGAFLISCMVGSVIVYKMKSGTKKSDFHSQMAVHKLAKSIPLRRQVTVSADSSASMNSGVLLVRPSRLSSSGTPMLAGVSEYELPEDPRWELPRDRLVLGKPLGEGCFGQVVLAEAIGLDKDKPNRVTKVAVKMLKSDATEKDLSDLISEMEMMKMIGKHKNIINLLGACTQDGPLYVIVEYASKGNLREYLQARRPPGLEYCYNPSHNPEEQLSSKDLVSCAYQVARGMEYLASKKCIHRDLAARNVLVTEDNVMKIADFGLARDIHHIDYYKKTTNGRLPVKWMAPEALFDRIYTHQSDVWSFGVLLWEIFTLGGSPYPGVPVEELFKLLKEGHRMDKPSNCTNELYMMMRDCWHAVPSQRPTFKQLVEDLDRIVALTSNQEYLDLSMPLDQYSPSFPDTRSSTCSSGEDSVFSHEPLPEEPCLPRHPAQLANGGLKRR
T2 sequence (P22607 23-806 V555M): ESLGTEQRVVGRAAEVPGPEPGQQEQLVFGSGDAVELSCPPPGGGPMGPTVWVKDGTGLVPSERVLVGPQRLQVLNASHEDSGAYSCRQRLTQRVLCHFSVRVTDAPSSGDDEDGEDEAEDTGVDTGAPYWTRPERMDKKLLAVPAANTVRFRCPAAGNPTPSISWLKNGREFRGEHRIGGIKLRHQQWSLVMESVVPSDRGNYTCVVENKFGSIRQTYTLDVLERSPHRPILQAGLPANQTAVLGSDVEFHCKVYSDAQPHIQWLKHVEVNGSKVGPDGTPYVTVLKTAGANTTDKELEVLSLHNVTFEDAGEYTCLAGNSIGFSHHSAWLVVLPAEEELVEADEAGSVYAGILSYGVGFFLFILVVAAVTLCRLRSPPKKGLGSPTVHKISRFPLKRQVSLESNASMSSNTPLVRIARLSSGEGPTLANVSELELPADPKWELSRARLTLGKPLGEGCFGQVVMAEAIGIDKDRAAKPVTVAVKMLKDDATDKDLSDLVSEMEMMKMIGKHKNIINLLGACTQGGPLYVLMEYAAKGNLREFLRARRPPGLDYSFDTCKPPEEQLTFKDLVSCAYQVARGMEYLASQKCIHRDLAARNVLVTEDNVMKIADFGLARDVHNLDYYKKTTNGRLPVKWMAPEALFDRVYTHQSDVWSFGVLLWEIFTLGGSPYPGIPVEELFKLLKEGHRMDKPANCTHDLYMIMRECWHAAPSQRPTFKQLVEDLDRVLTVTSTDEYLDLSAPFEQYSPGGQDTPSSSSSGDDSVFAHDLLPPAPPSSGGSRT
T1 sequence (P21802 22-821): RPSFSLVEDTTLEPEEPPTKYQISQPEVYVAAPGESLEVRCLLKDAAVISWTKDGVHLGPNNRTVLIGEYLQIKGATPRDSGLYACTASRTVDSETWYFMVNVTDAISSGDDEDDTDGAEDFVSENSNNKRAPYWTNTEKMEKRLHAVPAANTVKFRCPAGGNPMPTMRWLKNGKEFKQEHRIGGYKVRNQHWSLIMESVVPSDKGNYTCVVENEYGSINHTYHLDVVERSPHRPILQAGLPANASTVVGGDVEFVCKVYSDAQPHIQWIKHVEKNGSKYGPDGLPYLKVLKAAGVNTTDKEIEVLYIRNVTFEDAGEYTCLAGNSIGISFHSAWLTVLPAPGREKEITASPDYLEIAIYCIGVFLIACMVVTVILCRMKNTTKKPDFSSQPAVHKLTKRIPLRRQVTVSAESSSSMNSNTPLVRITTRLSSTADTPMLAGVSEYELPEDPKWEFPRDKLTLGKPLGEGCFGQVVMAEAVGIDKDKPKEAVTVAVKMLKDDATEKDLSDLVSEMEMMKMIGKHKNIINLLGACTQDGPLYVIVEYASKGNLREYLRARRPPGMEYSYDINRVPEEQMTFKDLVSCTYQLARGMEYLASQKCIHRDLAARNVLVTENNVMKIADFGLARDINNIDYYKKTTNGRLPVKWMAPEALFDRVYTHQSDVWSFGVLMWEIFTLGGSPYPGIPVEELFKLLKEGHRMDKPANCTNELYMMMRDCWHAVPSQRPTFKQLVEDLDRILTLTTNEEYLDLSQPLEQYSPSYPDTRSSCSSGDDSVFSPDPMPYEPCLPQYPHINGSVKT
T4 sequence (P22607 23-806): as the sequence (P22607 23-806 V555M) above, with M533V counted along it
T3 sequence (P22455 22-802): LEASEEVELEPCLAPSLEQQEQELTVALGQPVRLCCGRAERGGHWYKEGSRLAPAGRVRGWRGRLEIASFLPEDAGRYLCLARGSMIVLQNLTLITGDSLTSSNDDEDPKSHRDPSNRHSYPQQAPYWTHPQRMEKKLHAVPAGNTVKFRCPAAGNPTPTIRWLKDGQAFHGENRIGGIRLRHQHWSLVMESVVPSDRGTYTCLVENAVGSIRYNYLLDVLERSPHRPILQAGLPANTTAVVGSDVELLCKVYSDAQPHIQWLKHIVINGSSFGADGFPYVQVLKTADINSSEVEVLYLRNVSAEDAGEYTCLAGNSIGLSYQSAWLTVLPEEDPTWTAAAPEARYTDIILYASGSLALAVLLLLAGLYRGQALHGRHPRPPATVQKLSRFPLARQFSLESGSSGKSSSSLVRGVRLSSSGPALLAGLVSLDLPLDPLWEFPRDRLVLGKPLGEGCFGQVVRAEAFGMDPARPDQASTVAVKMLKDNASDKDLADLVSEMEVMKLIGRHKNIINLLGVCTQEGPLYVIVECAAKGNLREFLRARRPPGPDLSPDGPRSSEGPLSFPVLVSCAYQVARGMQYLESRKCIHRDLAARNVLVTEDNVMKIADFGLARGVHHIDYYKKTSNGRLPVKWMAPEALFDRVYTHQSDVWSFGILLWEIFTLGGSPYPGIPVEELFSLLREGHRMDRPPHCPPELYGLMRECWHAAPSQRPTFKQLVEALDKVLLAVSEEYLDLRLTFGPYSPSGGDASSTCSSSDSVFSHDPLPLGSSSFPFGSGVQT

Consider `COc1cc2[nH]nc(-c3cnc(N4CC(C)(NC(C)C)C4)nc3)c2cc1O[C@H](C)c1c(Cl)cncc1Cl` [Example 82, (R)-1-(5-(5-(1-(3,5-dichloropyridin-4-yl)ethoxy)-6-methoxy-1H-indazol-3-yl)pyrimidin-2-yl)-N-isopropyl-3-methylazetidin-3-amine], for which the IC50 in assay [1], in [7], in assay [8] and in assay [9] was 0.1 to 50 nM in each case. In addition, the Kd in assay [2], in assay [3], in [4], in assay [5] and in assay [6] was 1 to 50 nM in each case.

As for `C[C@@H](Oc1ccc2[nH]nc(-c3cnc(N4CC(C)(NC(=O)CN(C)C)C4)c(C#N)c3)c2c1)c1c(Cl)cncc1Cl` [Example 87, (R)-N-(1-(3-cyano-5-(5-(1-(3,5-dichloropyridin-4-yl)ethoxy)-1H-indazol-3-yl)pyridin-2-yl)-3-methylazetidin-3-yl)-2-(dimethylamino)acetamide], the concentration for half-maximal inhibition (IC50) in [1] was 0.1 to 50 nM; in [7], 200 to 1000 nM; in assay [8], 200 to 1000 nM; in assay [9], 50 to 200 nM. Also, the dissociation constant Kd in assay [2] is 50 to 300 nM; in assay [3], 1 to 50 nM; in assay [4], 1 to 50 nM; in [5], 1 to 50 nM; in [6] it was 1 to 50 nM.

For the compound `COCCNC1(C)CN(c2ncc(-c3n[nH]c4ccc(O[C@H](C)c5c(Cl)cncc5Cl)cc34)cc2C#N)C1` [Example 88, (R)-5-(5-(1-(3,5-dichloropyridin-4-yl)ethoxy)-1H-indazol-3-yl)-2-(3-((2-methoxyethyl)amino)-3-methylazetidin-1-yl)nicotinonitrile], the IC50 was 0.1 to 50 nM in assay [1], 50 to 200 nM in assay [7], 200 to 1000 nM in assay [8] and 50 to 200 nM in [9]. Also, the dissociation constant Kd in [2] was 50 to 300 nM; in assay [3], 1 to 50 nM; in assay [4], 1 to 50 nM; in assay [5], 1 to 50 nM; in assay [6], 1 to 50 nM.

As for `CC(C)OCCNC1(C)CN(c2ncc(-c3n[nH]c4ccc(O[C@H](C)c5c(Cl)cncc5Cl)cc34)cc2C#N)C1` [Example 98, (R)-5-(5-(1-(3,5-dichloropyridin-4-yl)ethoxy)-1H-indazol-3-yl)-2-(3-((2-isopropoxyethyl)amino)-3-methylazetidin-1-yl)nicotinonitrile], the IC50 fell in the range of 50 to 200 nM in [1], 200 to 1000 nM in [7], 200 to 1000 nM in assay [8] and 50 to 200 nM in assay [9]. The Kd in [2] lay within 50 to 300 nM; in assay [3] it was 1 to 50 nM; in assay [4], 1 to 50 nM; in assay [5], 1 to 50 nM; in assay [6], 50 to 300 nM.

Consider `COc1cc2[nH]nc(-c3cnc(N4CC(C)(N5CC(C)(O)C5)C4)c(C#N)c3)c2cc1O[C@H](C)c1c(Cl)cncc1Cl` [Example 99, (R)-5-(5-(1-(3,5-dichloropyridin-4-yl)ethoxy)-6-methoxy-1H-indazol-3-yl)-2-(3-hydroxy-3,3′-dimethyl-[1,3′-biazetidin]-1′-yl)nicotinonitrile], for which the IC50 in assay [1], in [7], in assay [8] and in [9] was 0.1 to 50 nM each time. In addition, the Kd in [2], in assay [3], in [4], in assay [5] and in [6] was 1 to 50 nM in each case.

With `C[C@@H](Oc1ccc2[nH]nc(-c3cnc(N4CC(C)(N5CC(C)(O)C5)C4)c(C#N)c3)c2c1)c1c(Cl)cncc1Cl` [Example 100, (R)-5-(5-(1-(3,5-dichloropyridin-4-yl)ethoxy)-1H-indazol-3-yl)-2-(3-hydroxy-3,3′-dimethyl-[1,3′-biazetidin]-1′-yl)nicotinonitrile], the IC50 in [1] was in the range of 0.1 to 50 nM; in [7], 50 to 200 nM; in [8], 50 to 200 nM; in assay [9], 0.1 to 50 nM. The Kd in assay [2], in [3], in [4], in [5] and in assay [6] was 1 to 50 nM each time.

For `COc1cc2[nH]nc(-c3cnc(N4CC(C)(N5CC(C)(OC)C5)C4)c(C#N)c3)c2cc1O[C@H](C)c1c(Cl)cncc1Cl` [Example 101, (R)-5-(5-(1-(3,5-dichloropyridin-4-yl)ethoxy)-6-methoxy-1H-indazol-3-yl)-2-(3-methoxy-3,3′-dimethyl-[1,3′-biazetidin]-1′-yl)nicotinonitrile], the IC50 in assay [1] lay within 0.1 to 50 nM; in assay [7], 0.1 to 50 nM; in [8], 50 to 200 nM; in [9], 0.1 to 50 nM. The Kd in assay [2], in assay [3], in assay [4], in [5] and in assay [6] was 1 to 50 nM in each case.

Turning to `COC1(C)CN(C2(C)CN(c3ncc(-c4n[nH]c5ccc(O[C@H](C)c6c(Cl)cncc6Cl)cc45)cc3C#N)C2)C1` [Example 102, (R)-5-(5-(1-(3,5-dichloropyridin-4-yl)ethoxy)-1H-indazol-3-yl)-2-(3-methoxy-3,3′-dimethyl-[1,3′-biazetidin]-1′-yl)nicotinonitrile], the IC50 in [1] was in the range of 0.1 to 50 nM; in assay [7], 200 to 1000 nM; in assay [8], 200 to 1000 nM; in [9], 50 to 200 nM. Moreover, the Kd in [2], in assay [3], in assay [4], in assay [5] and in assay [6] was 1 to 50 nM each time.

Consider `COc1cc2[nH]nc(-c3cnc(N4CC(C)(NCC5(O)CC5)C4)c(C#N)c3)c2cc1O[C@H](C)c1c(Cl)cncc1Cl` [Example 105], for which the IC50 lay within 0.1 to 50 nM in assay [1], 50 to 200 nM in assay [7], 50 to 200 nM in assay [8] and 0.1 to 50 nM in [9]. The Kd in assay [2], in [3], in [4], in [5] and in assay [6] was 1 to 50 nM in each case.

With `C[C@@H](Oc1ccc2[nH]nc(-c3cnc(N4CC(C)(CN5CCOCC5)C4)c(C#N)c3)c2c1)c1c(Cl)cncc1Cl` [Example 122, (R)-5-(5-(1-(3,5-dichloropyridin-4-yl)ethoxy)-1H-indazol-3-yl)-2-(3-methyl-3-(morpholinomethyl)aze-tidin-1-yl)nicotinonitrile], the IC50 in [1] is 50 to 200 nM; in [7], 200 to 1000 nM; in [8] it was 200 to 1000 nM; in assay [9] it was 50 to 200 nM. In addition, the Kd in assay [2] lay in the range of 50 to 300 nM; in [3] it was 1 to 50 nM; in [4], 1 to 50 nM; in [5] it was 1 to 50 nM; in assay [6], 50 to 300 nM.

Take `C[C@@H](Oc1ccc2[nH]nc(-c3cnc(N4CC(C)(CN5CCCC5)C4)c(C#N)c3)c2c1)c1c(Cl)cncc1Cl` [Example 123, (R)-5-(5-(1-(3,5-dichloropyridin-4-yl)ethoxy)-1H-indazol-3-yl)-2-(3-methyl-3-(pyrrolidin-1-ylmethyl)azetidin-1-yl)nicotinonitrile]: the IC50 is 0.1 to 50 nM in assay [1], 200 to 1000 nM in [7], 200 to 1000 nM in assay [8] and 50 to 200 nM in [9]. The Kd lay within 1 to 50 nM in assay [2]; 1 to 50 nM in assay [3]; 1 to 50 nM in assay [4]; 1 to 50 nM in assay [5]; 50 to 300 nM in assay [6].

By IC50 is commonly meant the point on the concentration scale where inhibition reaches its midpoint. One may read the Kd as the equilibrium constant for the complex coming apart.
